Measurements published in the NIST ThermoML archive (doi:10.1021/je301353z).

Assay: xn = mol fraction of the nth substance listed
Conditions: 101 kPa, Liquid; for speed of sound: Sing-around technique in a fixed-path interferometer; for mass density: Vibrating tube method

O=C1CCCN1 [2-pyrrolidinone] + c1ccncc1
Conditions | mass density, 293.15 K [kg/m3] | mass density, 298.15 K [kg/m3] | mass density, 303.15 K [kg/m3] | mass density, 308.15 K [kg/m3] | speed of sound, 293.15 K [m/s] | speed of sound, 298.15 K [m/s] | speed of sound, 303.15 K [m/s] | speed of sound, 308.15 K [m/s]
x1 = 0.1333 | 1001.83 | 997.07 | 992.29 | 987.38 | 1468.5 | 1445.6 | 1426.5 | 1406.5
x1 = 0.1801 | 1008.31 | 1003.57 | 998.88 | 994.01 | 1478.1 | 1455.5 | 1436.7 | 1416.9
x1 = 0.2312 | 1015.32 | 1010.62 | 1006.02 | 1001.17 | 1488.6 | 1466.4 | 1447.9 | 1428.3
x1 = 0.2713 | 1020.76 | 1016.1 | 1011.55 | 1006.71 | 1496.9 | 1475.1 | 1456.6 | 1437.4
x1 = 0.3312 | 1028.79 | 1024.17 | 1019.7 | 1014.93 | 1509.4 | 1488.1 | 1469.8 | 1450.9
x1 = 0.3717 | 1034.17 | 1029.56 | 1025.16 | 1020.41 | 1518 | 1496.8 | 1478.8 | 1460
x1 = 0.4312 | 1041.94 | 1037.41 | 1033.04 | 1028.34 | 1530.8 | 1510 | 1491.9 | 1473.6
x1 = 0.4752 | 1047.59 | 1043.13 | 1038.77 | 1034.15 | 1540.2 | 1519.7 | 1501.8 | 1483.5
x1 = 0.5316 | 1054.74 | 1050.35 | 1046.02 | 1041.5 | 1552.3 | 1532.1 | 1514.4 | 1496.3
x1 = 0.5717 | 1059.77 | 1055.45 | 1051.12 | 1046.65 | 1560.9 | 1541 | 1523.2 | 1505.6
x1 = 0.6219 | 1065.97 | 1061.74 | 1057.4 | 1053.03 | 1571.9 | 1552.1 | 1534.4 | 1517
x1 = 0.6772 | 1072.71 | 1068.57 | 1064.23 | 1059.98 | 1583.7 | 1564.5 | 1546.7 | 1529.5
x1 = 0.7314 | 1079.26 | 1075.19 | 1070.86 | 1066.7 | 1595.4 | 1576.4 | 1558.8 | 1541.7
x1 = 0.7714 | 1084.05 | 1080.04 | 1075.69 | 1071.59 | 1603.9 | 1585.1 | 1567.6 | 1550.7
x1 = 0.8312 | 1091.16 | 1087.2 | 1082.86 | 1078.85 | 1616.4 | 1598.2 | 1580.7 | 1564.3
x1 = 0.8712 | 1095.91 | 1091.96 | 1087.64 | 1083.64 | 1624.7 | 1606.7 | 1589.3 | 1573.2
x1 = 0.9013 | 1099.48 | 1095.53 | 1091.23 | 1087.24 | 1630.8 | 1613.2 | 1596 | 1580
x1 = 0.9311 | 1103.03 | 1099.05 | 1094.78 | 1090.78 | 1636.8 | 1619.6 | 1602.4 | 1586.6

c1ccncc1 [pyridine] + CN1CCCC1=O
Conditions | mass density, 293.15 K [kg/m3] | mass density, 298.15 K [kg/m3] | mass density, 303.15 K [kg/m3] | mass density, 308.15 K [kg/m3] | speed of sound, 293.15 K [m/s] | speed of sound, 298.15 K [m/s] | speed of sound, 303.15 K [m/s] | speed of sound, 308.15 K [m/s]
x2 = 0.1276 | 994.55 | 989.82 | 985.09 | 980.3 | 1467.8 | 1445 | 1425.5 | 1405.3
x2 = 0.1779 | 998.64 | 993.95 | 989.28 | 984.53 | 1478.4 | 1455.9 | 1436.8 | 1416.4
x2 = 0.2348 | 1003 | 998.35 | 993.72 | 988.98 | 1490.6 | 1468.4 | 1449.4 | 1429.1
x2 = 0.2664 | 1005.29 | 1000.65 | 996.04 | 991.33 | 1497.6 | 1475.5 | 1456.2 | 1436.2
x2 = 0.3291 | 1009.56 | 1004.94 | 1000.35 | 995.65 | 1511.1 | 1489 | 1469.8 | 1449.7
x2 = 0.3707 | 1012.2 | 1007.56 | 1002.99 | 998.31 | 1519.6 | 1498 | 1478.9 | 1458.8
x2 = 0.4328 | 1015.86 | 1011.21 | 1006.65 | 1001.96 | 1532.2 | 1510.7 | 1491.6 | 1471.5
x2 = 0.4749 | 1018.16 | 1013.51 | 1008.96 | 1004.25 | 1540.4 | 1518.6 | 1499.5 | 1479.4
x2 = 0.5215 | 1020.5 | 1015.82 | 1011.28 | 1006.63 | 1548.4 | 1527 | 1508.3 | 1487.9
x2 = 0.5647 | 1022.48 | 1017.8 | 1013.27 | 1008.63 | 1555.7 | 1534.4 | 1515.3 | 1495.4
x2 = 0.6364 | 1025.43 | 1020.74 | 1016.23 | 1011.56 | 1565.6 | 1544.5 | 1525.6 | 1505.9
x2 = 0.6778 | 1026.91 | 1022.19 | 1017.71 | 1013.05 | 1569.8 | 1549 | 1530.8 | 1510.5
x2 = 0.7312 | 1028.58 | 1023.87 | 1019.36 | 1014.76 | 1574.5 | 1553.6 | 1535.6 | 1515.4
x2 = 0.7701 | 1029.65 | 1024.9 | 1020.4 | 1015.79 | 1576.5 | 1556.2 | 1537.8 | 1518.1
x2 = 0.8321 | 1031.09 | 1026.29 | 1021.76 | 1017.16 | 1577.6 | 1557.6 | 1539.3 | 1519.7
x2 = 0.8711 | 1031.8 | 1026.99 | 1022.43 | 1017.79 | 1576.7 | 1556.8 | 1538.9 | 1519.1
x2 = 0.9011 | 1032.27 | 1027.41 | 1022.83 | 1018.17 | 1575.4 | 1555.7 | 1537.4 | 1517.6
x2 = 0.9312 | 1032.65 | 1027.76 | 1023.14 | 1018.45 | 1573.3 | 1553.5 | 1535.4 | 1515.6
